“And” between values parts separate entries of the source, which are not always exact repeats. Identical values can stand only once. Inconclusive results and toxic doses are left out. Rule for the calls: active = survival T/C of 150% or more; inactive = T/C below 125% in these data.
Tested on: CD2F1 mice, L1210 leukemia ip, survival T/C
Experiment: NCI In Vivo Anticancer Drug Screen. Data for tumor model L1210 Leukemia (intraperitoneal) in CD2F1 (CDF1) mice
Conditions: higher = longer survival
Summary of the method: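 Ratio T/C, where T is the treated-group value and C the vehicle-dosed control value, from mice implanted with a transplantable tumor.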

[1] = endpoint: mean survival time, dose: 100.0 mg/kg/injection, schedule: Q01DX001 (ip), vehicle: saline
[2] = endpoint: mean survival time, dose: 200.0 mg/kg/injection, schedule: Q01DX001 (ip), vehicle: saline
[3] = endpoint: mean survival time, dose: 400.0 mg/kg/injection, schedule: Q01DX001 (ip), vehicle: saline
[4] = endpoint: mean survival time, dose: 12.5 mg/kg/injection, schedule: Q01DX009 (ip), vehicle: water
[5] = endpoint: mean survival time, dose: 25.0 mg/kg/injection, schedule: Q01DX009 (ip), vehicle: water
[6] = endpoint: mean survival time, dose: 50.0 mg/kg/injection, schedule: Q01DX009 (ip), vehicle: water
[7] = endpoint: mean survival time, dose: 100.0 mg/kg/injection, schedule: Q01DX009 (ip), vehicle: water
[8] = endpoint: mean survival time, dose: 200.0 mg/kg/injection, schedule: Q01DX009 (ip), vehicle: water
[9] = endpoint: mean survival time, dose: 100.0 mg/kg/injection, schedule: Q01DX009 (ip), vehicle: saline with Tween-80
[10] = endpoint: mean survival time, dose: 200.0 mg/kg/injection, schedule: Q01DX009 (ip), vehicle: saline with Tween-80
[11] = endpoint: mean survival time, dose: 400.0 mg/kg/injection, schedule: Q01DX009 (ip), vehicle: saline with Tween-80
[12] = endpoint: mean survival time, dose: 25.0 mg/kg/injection, schedule: Q01DX009 (ip), vehicle: saline
[13] = endpoint: mean survival time, dose: 50.0 mg/kg/injection, schedule: Q01DX009 (ip), vehicle: saline
[14] = endpoint: mean survival time, dose: 100.0 mg/kg/injection, schedule: Q01DX009 (ip), vehicle: saline
[15] = endpoint: mean survival time, dose: 100.0 mg/kg/injection, schedule: Q04DX003 (ip), vehicle: saline with Tween-80
[16] = endpoint: mean survival time, dose: 200.0 mg/kg/injection, schedule: Q04DX003 (ip), vehicle: saline with Tween-80
[17] = endpoint: mean survival time, dose: 400.0 mg/kg/injection, schedule: Q04DX003 (ip), vehicle: saline with Tween-80
[18] = endpoint: mean survival time, dose: 100.0 mg/kg/injection, schedule: Q01DX001 (ip), vehicle: saline with Tween-80
[19] = endpoint: mean survival time, dose: 200.0 mg/kg/injection, schedule: Q01DX001 (ip), vehicle: saline with Tween-80
[20] = endpoint: mean survival time, dose: 400.0 mg/kg/injection, schedule: Q01DX001 (ip), vehicle: saline with Tween-80

Measured: T/C

CC1OC(OCC2OC(Oc3c(-c4ccc(O)c(O)c4)oc4cc(O)cc(O)c4c3=O)C(O)C(O)C2O)C(O)C(O)C1O (stereo unspecified)
inactive: [1] 100 % of control | [2] 102 % of control | [3] 100 % of control

CCOC(=O)C1C(=O)N(c2ccccc2)C(=O)N1C (stereo unspecified)
inactive: [4] 94 % of control | [5] 93 % of control | [6] 94 % of control | [7] 98 % of control | [8] 100 % of control

CC(=O)OCC1OC([n+]2c([O-])cc(=O)n3ccsc32)C(OC(C)=O)C1OC(C)=O (stereo unspecified)
inactive: endpoint: median survival time, dose: 11.25 mg/kg/injection, schedule: Q01DX005 (ip), vehicle: water 101 % of control | endpoint: median survival time, dose: 12.5 mg/kg/injection, schedule: Q01DX005 (ip), vehicle: distilled water + Tween-80 103 % of control | endpoint: median survival time, dose: 22.5 mg/kg/injection, schedule: Q01DX005 (ip), vehicle: water 100 % of control | endpoint: median survival time, dose: 25.0 mg/kg/injection, schedule: Q01DX005 (ip), vehicle: distilled water + Tween-80 98 % of control | endpoint: median survival time, dose: 45.0 mg/kg/injection, schedule: Q01DX005 (ip), vehicle: water 108 % of control | endpoint: median survival time, dose: 50.0 mg/kg/injection, schedule: Q01DX005 (ip), vehicle: distilled water + Tween-80 98 % of control | endpoint: median survival time, dose: 90.0 mg/kg/injection, schedule: Q01DX005 (ip), vehicle: water 114 % of control | endpoint: median survival time, dose: 100.0 mg/kg/injection, schedule: Q01DX005 (ip), vehicle: distilled water + Tween-80 102 % of control | endpoint: median survival time, dose: 180.0 mg/kg/injection, schedule: Q01DX005 (ip), vehicle: water 101 % of control | endpoint: median survival time, dose: 200.0 mg/kg/injection, schedule: Q01DX005 (ip), vehicle: distilled water + Tween-80 95 % of control

Cc1cc(O)c(O)c([N+](=O)[O-])c1
inactive: [9] 95 % of control | [10] 97 % of control | [11] 97 % of control

CC(C)NC(=O)CCCn1c(=O)c2ccccc2c(=O)n1C
inactive: endpoint: mean survival time, dose: 25.0 mg/kg/injection, schedule: Q04DX003 (ip), vehicle: saline 104 % of control | endpoint: mean survival time, dose: 50.0 mg/kg/injection, schedule: Q04DX003 (ip), vehicle: saline 96 % of control | endpoint: mean survival time, dose: 100.0 mg/kg/injection, schedule: Q04DX003 (ip), vehicle: saline 101 % of control | endpoint: mean survival time, dose: 200.0 mg/kg/injection, schedule: Q04DX003 (ip), vehicle: saline 96 % of control | endpoint: mean survival time, dose: 400.0 mg/kg/injection, schedule: Q04DX003 (ip), vehicle: saline 98 % of control

COC(=O)N1C=Cc2ccccc2C1C#N (stereo unspecified)
inactive: [12] 89 % of control | [13] 98 % of control | [14] 88 % of control

CCCCCCCCCCCCCC(=O)N1CCOCC1
inactive: [9] 96 % of control | [15] 97 % of control | [10] 96 % of control | [16] 95 % of control | [11] 100 % of control | [17] 97 % of control

CCCCCCCCCC(=O)NC(=S)Nc1c(C)cccc1C
inactive: endpoint: mean survival time, dose: 25.0 mg/kg/injection, schedule: Q01DX001 (ip), vehicle: saline with Tween-80 95 % of control | endpoint: mean survival time, dose: 50.0 mg/kg/injection, schedule: Q01DX001 (ip), vehicle: saline with Tween-80 95 % of control | [18] 92 % of control | [9] 92 % of control and 109 % of control | endpoint: mean survival time, dose: 100.0 mg/kg/injection, schedule: Q04DX002 (ip), vehicle: saline with Tween-80 92 % of control and 96 % of control | [15] 98 % of control | [19] 91 % of control and 92 % of control | [10] 89 % of control and 98 % of control | endpoint: mean survival time, dose: 200.0 mg/kg/injection, schedule: Q04DX002 (ip), vehicle: saline with Tween-80 98 % of control and 100 % of control | [16] 95 % of control | [20] 88 % of control | [11] 106 % of control | endpoint: mean survival time, dose: 400.0 mg/kg/injection, schedule: Q04DX002 (ip), vehicle: saline with Tween-80 91 % of control and 96 % of control | [17] 90 % of control

CC1/C(=N\Nc2ccc([N+](=O)[O-])cc2[N+](=O)[O-])CCC2C1(C)CCC1C2(C)CCC2(C)C3CC(C)(C)CCC3(C)CCC12C (stereo unspecified)
inactive: [1] 97 % of control | [2] 97 % of control | [3] 97 % of control

CC(Br)C1(c2cccc([N+](=O)[O-])c2)OCCO1 (stereo unspecified)
inactive: endpoint: mean survival time, dose: 12.0 mg/kg/injection, schedule: Q01DX009 (ip), vehicle: saline 96 % of control | [12] 112 % of control | [13] 106 % of control

CC/C(C)=N\O
inactive: [14] 97 % of control | endpoint: mean survival time, dose: 200.0 mg/kg/injection, schedule: Q01DX009 (ip), vehicle: saline 111 % of control | endpoint: mean survival time, dose: 400.0 mg/kg/injection, schedule: Q01DX009 (ip), vehicle: saline 97 % of control

CCCCCCCCCCCCCCCCCCCCCC(=O)CCCCCCCCCCCCCCCCCCCCC
inactive: [18] 86 % of control | [19] 93 % of control | [20] 101 % of control

[Cl][Pt+2][Cl].[NH-]c1nc(-c2ccccc2)cs1.[NH-]c1nc(-c2ccccc2)cs1
inactive: endpoint: mean survival time, dose: 3.13 mg/kg/injection, schedule: Q04DX003 (ip), vehicle: distilled water + Tween-80 101 % of control | endpoint: mean survival time, dose: 6.25 mg/kg/injection, schedule: Q04DX003 (ip), vehicle: distilled water + Tween-80 101 % of control | endpoint: mean survival time, dose: 12.5 mg/kg/injection, schedule: Q04DX003 (ip), vehicle: distilled water + Tween-80 96 % of control | endpoint: mean survival time, dose: 25.0 mg/kg/injection, schedule: Q04DX003 (ip), vehicle: distilled water + Tween-80 102 % of control | endpoint: mean survival time, dose: 50.0 mg/kg/injection, schedule: Q04DX003 (ip), vehicle: distilled water + Tween-80 96 % of control | endpoint: mean survival time, dose: 100.0 mg/kg/injection, schedule: Q04DX003 (ip), vehicle: distilled water + Tween-80 98 % of control | endpoint: mean survival time, dose: 200.0 mg/kg/injection, schedule: Q04DX003 (ip), vehicle: distilled water + Tween-80 98 % of control

COc1ccccc1OC(=O)Nc1ccc(C)c([N+](=O)[O-])c1
inactive: endpoint: mean survival time, dose: 25.0 mg/kg/injection, schedule: Q04DX003 (ip), vehicle: saline with Tween-80 96 % of control | endpoint: mean survival time, dose: 50.0 mg/kg/injection, schedule: Q04DX003 (ip), vehicle: saline with Tween-80 93 % of control | [15] 98 % of control and 103 % of control | [17] 97 % of control

Cc1ccc(C)c(NC(=O)c2cccc(Cl)c2)c1
inactive: [9] 89 % of control | [15] 94 % of control | [10] 94 % of control | [16] 94 % of control | [11] 102 % of control | [17] 94 % of control

CCCCCCCCC(=O)N1CCOCC1
inactive: [9] 108 % of control | endpoint: mean survival time, dose: 150.0 mg/kg/injection, schedule: Q04DX003 (ip), vehicle: saline 96 % of control

COC(=O)Cc1cc(O)c(C(=O)OC)c(O)c1C(=O)OC
inactive: [18] 103 % of control | [19] 98 % of control | [20] 98 % of control

COC(=O)C1(C(=O)OC)C2C(=O)C3C(C21)C3(C(=O)OC(C)(C)C)C(=O)OC(C)(C)C (stereo unspecified)
inactive: [9] 96 % of control | [10] 94 % of control | [11] 93 % of control

CCOC(=O)/C(=C/c1ccc(OCc2ccccc2)cc1)P(=O)(OCC)OCC
inactive: [15] 98 % of control | [16] 96 % of control | [17] 101 % of control

CCCCOC(=O)c1cccc([N+](=O)[O-])c1
inactive: endpoint: mean survival time, dose: 50.0 mg/kg/injection, schedule: Q01DX009 (ip), vehicle: saline with Tween-80 93 % of control | [9] 104 % of control | [10] 105 % of control

c1ccc(C[As+](c2ccccc2)(c2ccccc2)c2ccccc2)cc1
inactive: endpoint: mean survival time, dose: 25.0 mg/kg/injection, schedule: Q04DX002 (ip), vehicle: saline with Tween-80 96 % of control

COc1ccc2ccccc2c1NC(C)=O
inactive: [1] 102 % of control | [2] 101 % of control | [3] 101 % of control

CCC1(C)N=C(C)C(C)S1 (stereo unspecified)
inactive: [9] 89 % of control | [10] 100 % of control | [11] 91 % of control

NC(=O)C12CCCCC1CCC2 (stereo unspecified)
inactive: [15] 103 % of control | [16] 96 % of control | [17] 97 % of control

OCC1OC(n2ncc3c2N=CN2CCN=C32)C(O)C1O (stereo unspecified)
inactive: [4] 95 % of control | [5] 98 % of control | [6] 102 % of control | [7] 95 % of control | [8] 95 % of control

CSc1ccc(SC)nn1
inactive: [9] 102 % of control | [10] 96 % of control | [11] 91 % of control

NNC(=O)Sc1ccccc1
inactive: [1] 107 % of control | [2] 111 % of control | [3] 102 % of control

CCOC(=O)/C=C/C(=O)O.[Cu+2]
inactive: endpoint: mean survival time, dose: 1.56 mg/kg/injection, schedule: Q04DX003 (ip), vehicle: saline 108 % of control | endpoint: mean survival time, dose: 3.12 mg/kg/injection, schedule: Q04DX003 (ip), vehicle: saline 108 % of control | endpoint: mean survival time, dose: 6.25 mg/kg/injection, schedule: Q04DX003 (ip), vehicle: saline 104 % of control

— PubChem BioAssay AID256 (DTP/NCI, 2004)
